Laboratory results: US8232305B2, “Anti-microbial compositions” (BASF SE, priority 2006, dated 2012)

Columns and labels:
[1] = test system: Staphylococcus aureus; assay: Microbicidal activity according to EN1040; format: cell-based; conditions: 1000 ppm, room temperature, vs growth control in water
Experimental: (§1) A bacterial suspension with a cell count of about 10^7 cfu/ml is contacted with appropriate concentrations of the specific substances and the residual cell count determined after incubation times of 5 and 30 minutes at room temperature under continuous stirring. Staphylococcus aureus was tested as gram+ and Escherichia coli as gram− organism. The results are given as a log reduction in comparison to a growth control in water.

[2] = test system: Escherichia coli; assay: Microbicidal activity according to EN1040; format: cell-based; conditions: 1000 ppm, room temperature, vs growth control in water
Experimental: as §1

[3] = test system: S. aureus ATCC 6538; assay: Microbicidal activity under conditions similar to a preservative challenge test; format: cell-based; conditions: 0.5%, inoculum 10^5 cfu/ml
Experimental: as §1
(§2) The test procedure of Example 7 is used, with an inoculum concentration of 10^5 cfu/ml and incubation times of 48 and 72 hours; figures given as log reduction.

[4] = test system: C. albicans ATCC 10231; assay: as above; format: cell-based; conditions: 0.5%, inoculum 10^5 cfu/ml
Experimental: as §1, §2

[5] = test system: A. niger ATCC 16404; assay: as above; format: cell-based; conditions: 0.5%, inoculum 10^5 cfu/ml
Experimental: as §1, §2

[6] = test system: E. coli ATCC 10536; assay: as above; format: cell-based; conditions: 0.5%, inoculum 10^5 cfu/ml
Experimental: as §1, §2

[7] = test system: P. aeruginosa ATCC 15442; assay: as above; format: cell-based; conditions: 0.5%, inoculum 10^5 cfu/ml
Experimental: as §1, §2

[8] = test system: C. albicans; assay: Preservative challenge test in cosmetic emulsions (EurPh and USP); format: cell-based; conditions: 0.5% w/w
Experimental: (§3) A preservative challenge test is conducted for representative cosmetic formulations according to the conditions of the EurPh and USP. The compound concentration in the formulations is 0.5% w/w. The Inoculum concentration of the five different strains is 2.1-4.2×10^5 cfu/ml, incubation time according to EurPh. 2, 7, 14 and 28 days. Preservation is investigated in two different emulsion types, w/o and o/w.

[9] = test system: P. aerug.; assay: as above; format: cell-based; conditions: 0.5% w/w
Experimental: as §3

[10] = test system: E. coli; assay: as above; format: cell-based; conditions: 0.5% w/w
Experimental: as §3

[11] = test system: A. niger; assay: as above; format: cell-based; conditions: 0.5% w/w
Experimental: as §3

[12] = test system: S. aureus; assay: as above; format: cell-based; conditions: 0.5% w/w
Experimental: as §3

[13] = test system: Aspergillus niger; assay: Fungicidal activity according to EN12175; format: cell-based; conditions: spores about 10^6 cfu/ml, vs water control; for log reduction A. niger 30 min: 1%
Experimental: (§4) Fungicidal activity is tested according to EN12175. A fungal spore suspension with a spore cell count of about 10^6 cfu/ml is contacted with appropriate concentrations of the specific substances and the residual spore cell count determined after incubation times of 30 and 60 minutes at room temperature under continuous stirring. Penicillium funiculosum, Aspergillus niger and Aureobasidium pullulans are tested as important mold strains. The results are given as a log reduction at each incubation time in comparison to a water control.

[14] = test system: Aureobasidium pullulans; assay: Fungicidal activity according to EN12175; format: cell-based; conditions: spores about 10^6 cfu/ml, vs water control; for log reduction A. pullulans 30 min: 1%
Experimental: as §4

[15] = test system: Penicillium funiculosum; assay: Fungicidal activity according to EN12175; format: cell-based; conditions: spores about 10^6 cfu/ml, vs water control; for log reduction P. funiculosum 30 min: 1%
Experimental: as §4

[16] = Formulation of stable w/o or o/w emulsions; format: physicochemical; conditions: comparable concentrations (0.5% w/w) in the w/o and o/w emulsions of Example 10

## CCCCCCCCOC(=O)C[n+]1ccn(C)c1.[Br-] [Ex 2, 1-methyl-3-(2-oxo-2-octyloxyethyl)-1H-Imidazolium bromide]
[1]
  log reduction S. aureus 5 min.: 3.2 log
  log reduction S. aureus 30 min.: 3.7 log
[2]
  log reduction E. coli 5 min.: <1 log
  log reduction E. coli 30 min.: 1.2 log
[3]
  log reduction S. aureus ATCC 6538 48 h: >3 log
  log reduction S. aureus ATCC 6538 72 h: >3 log
[4]
  log reduction C. albicans ATCC 10231 48 h: >3 log
  log reduction C. albicans ATCC 10231 72 h: >3 log
[5]
  log reduction A. niger ATCC 16404 48 h: 1.8 log
  log reduction A. niger ATCC 16404 72 h: 2.3 log
[6]
  log reduction E. coli ATCC 10536 48 h: >3 log
  log reduction E. coli ATCC 10536 72 h: >3 log
[7]
  log reduction P. aeruginosa ATCC 15442 48 h: >3 log
  log reduction P. aeruginosa ATCC 15442 72 h: >3 log
[8]; O/W emulsion, 2 days
  Log Reduction C. albicans: 0 log
[8]; O/W emulsion, 7 days
  Log Reduction C. albicans: 2 log
[8]; O/W emulsion, 14 days
  Log Reduction C. albicans: ≧3 log
[8]; O/W emulsion, 28 days
  Log Reduction C. albicans: 5 log
[8]; W/O emulsion, 2 days
  Log Reduction C. albicans: 1 log
[8]; W/O emulsion, 7 days
  Log Reduction C. albicans: ≧3 log
[8]; W/O emulsion, 14 days
  Log Reduction C. albicans: 5 log
[8]; W/O emulsion, 28 days
  Log Reduction C. albicans: 5 log
[9]; O/W emulsion, 2 days
  Log Reduction P. aerug.: ≧4 log
[9]; O/W emulsion, 7 days
  Log Reduction P. aerug.: 5 log
[9]; O/W emulsion, 14 days
  Log Reduction P. aerug.: 5 log
[9]; O/W emulsion, 28 days
  Log Reduction P. aerug.: 5 log
[9]; W/O emulsion, 2 days
  Log Reduction P. aerug.: 5 log
[9]; W/O emulsion, 7 days
  Log Reduction P. aerug.: 5 log
[9]; W/O emulsion, 14 days
  Log Reduction P. aerug.: 5 log
[9]; W/O emulsion, 28 days
  Log Reduction P. aerug.: 5 log
[10]; O/W emulsion, 2 days
  Log Reduction E. coli: 3 log
[10]; O/W emulsion, 7 days
  Log Reduction E. coli: ≧4 log
[10]; O/W emulsion, 14 days
  Log Reduction E. coli: 6 log
[10]; O/W emulsion, 28 days
  Log Reduction E. coli: 6 log
[10]; W/O emulsion, 2 days
  Log Reduction E. coli: 6 log
[10]; W/O emulsion, 7 days
  Log Reduction E. coli: 6 log
[10]; W/O emulsion, 14 days
  Log Reduction E. coli: 6 log
[10]; W/O emulsion, 28 days
  Log Reduction E. coli: 6 log
[11]; O/W emulsion, 2 days
  Log Reduction A. niger: 0 log
[11]; O/W emulsion, 7 days
  Log Reduction A. niger: 0 log
[11]; O/W emulsion, 14 days
  Log Reduction A. niger: 0 log
[11]; O/W emulsion, 28 days
  Log Reduction A. niger: 0 log
[11]; W/O emulsion, 2 days
  Log Reduction A. niger: 0 log
[11]; W/O emulsion, 7 days
  Log Reduction A. niger: 0 log
[11]; W/O emulsion, 14 days
  Log Reduction A. niger: 0 log
[11]; W/O emulsion, 28 days
  Log Reduction A. niger: 0 log
[12]; O/W emulsion, 2 days
  Log Reduction S. aureus: ≧4 log
[12]; O/W emulsion, 7 days
  Log Reduction S. aureus: 6 log
[12]; O/W emulsion, 14 days
  Log Reduction S. aureus: 6 log
[12]; O/W emulsion, 28 days
  Log Reduction S. aureus: 6 log
[12]; W/O emulsion, 2 days
  Log Reduction S. aureus: 6 log
[12]; W/O emulsion, 7 days
  Log Reduction S. aureus: 6 log
[12]; W/O emulsion, 14 days
  Log Reduction S. aureus: 6 log
[12]; W/O emulsion, 28 days
  Log Reduction S. aureus: 6 log
[13]
  log reduction A. niger 30 min: <1 log
  log reduction A. niger 1 h: 2.0 log
[14]
  log reduction A. pullulans 30 min: >4 log
  log reduction A. pullulans 1 h: >4 log
[15]
  log reduction P. funiculosum 30 min: <1 log
  log reduction P. funiculosum 1 h: <1 log

## CCCCOC(=O)C[n+]1ccn(C)c1.[Br-] [Ex 3]
[1]
  log reduction S. aureus 5 min.: <1 log
  log reduction S. aureus 30 min.: <1 log
[2]
  log reduction E. coli 5 min.: <1 log
  log reduction E. coli 30 min.: <1 log
[3]
  log reduction S. aureus ATCC 6538 48 h: >3 log
  log reduction S. aureus ATCC 6538 72 h: >3 log
[4]
  log reduction C. albicans ATCC 10231 48 h: 1.4 log
  log reduction C. albicans ATCC 10231 72 h: 1.7 log
[5]
  log reduction A. niger ATCC 16404 48 h: <1 log
  log reduction A. niger ATCC 16404 72 h: <1 log
[6]
  log reduction E. coli ATCC 10536 48 h: >3 log
  log reduction E. coli ATCC 10536 72 h: >3 log
[7]
  log reduction P. aeruginosa ATCC 15442 48 h: >3 log
  log reduction P. aeruginosa ATCC 15442 72 h: >3 log
[13]
  log reduction A. niger 30 min: <1 log
  log reduction A. niger 1 h: <1 log
[14]
  log reduction A. pullulans 30 min: <1 log
  log reduction A. pullulans 1 h: <1 log
[15]
  log reduction P. funiculosum 30 min: <1 log
  log reduction P. funiculosum 1 h: <1 log

## CCCCCCCCCCCCOC(=O)C[n+]1ccn(C)c1.[Br-] [Ex 4]
[1]
  log reduction S. aureus 5 min.: >5 log
  log reduction S. aureus 30 min.: >5 log
[2]
  log reduction E. coli 5 min.: >5 log
  log reduction E. coli 30 min.: >5 log
[3]
  log reduction S. aureus ATCC 6538 48 h: >3 log
  log reduction S. aureus ATCC 6538 72 h: >3 log
[4]
  log reduction C. albicans ATCC 10231 48 h: >3 log
  log reduction C. albicans ATCC 10231 72 h: >3 log
[5]
  log reduction A. niger ATCC 16404 48 h: 1.8 log
  log reduction A. niger ATCC 16404 72 h: 2.3 log
[6]
  log reduction E. coli ATCC 10536 48 h: >3 log
  log reduction E. coli ATCC 10536 72 h: >3 log
[7]
  log reduction P. aeruginosa ATCC 15442 48 h: >3 log
  log reduction P. aeruginosa ATCC 15442 72 h: >3 log
[8]; O/W emulsion, 2 days
  Log Reduction C. albicans: 0 log
[8]; O/W emulsion, 7 days
  Log Reduction C. albicans: 0 log
[8]; O/W emulsion, 14 days
  Log Reduction C. albicans: 0 log
[8]; O/W emulsion, 28 days
  Log Reduction C. albicans: 0 log
[8]; W/O emulsion, 2 days
  Log Reduction C. albicans: 2 log
[8]; W/O emulsion, 7 days
  Log Reduction C. albicans: 3 log
[8]; W/O emulsion, 14 days
  Log Reduction C. albicans: 3 log
[8]; W/O emulsion, 28 days
  Log Reduction C. albicans: 5 log
[9]; O/W emulsion, 2 days
  Log Reduction P. aerug.: ≧4 log
[9]; O/W emulsion, 7 days
  Log Reduction P. aerug.: 5 log
[9]; O/W emulsion, 14 days
  Log Reduction P. aerug.: 5 log
[9]; O/W emulsion, 28 days
  Log Reduction P. aerug.: 5 log
[9]; W/O emulsion, 2 days
  Log Reduction P. aerug.: 5 log
[9]; W/O emulsion, 7 days
  Log Reduction P. aerug.: 5 log
[9]; W/O emulsion, 14 days
  Log Reduction P. aerug.: 5 log
[9]; W/O emulsion, 28 days
  Log Reduction P. aerug.: 5 log
[10]; O/W emulsion, 2 days
  Log Reduction E. coli: 1 log
[10]; O/W emulsion, 7 days
  Log Reduction E. coli: 1 log
[10]; O/W emulsion, 14 days
  Log Reduction E. coli: 2 log
[10]; O/W emulsion, 28 days
  Log Reduction E. coli: ≧4 log
[10]; W/O emulsion, 2 days
  Log Reduction E. coli: 6 log
[10]; W/O emulsion, 7 days
  Log Reduction E. coli: 6 log
[10]; W/O emulsion, 14 days
  Log Reduction E. coli: 6 log
[10]; W/O emulsion, 28 days
  Log Reduction E. coli: 6 log
[11]; O/W emulsion, 2 days
  Log Reduction A. niger: 0 log
[11]; O/W emulsion, 7 days
  Log Reduction A. niger: 0 log
[11]; O/W emulsion, 14 days
  Log Reduction A. niger: 0 log
[11]; O/W emulsion, 28 days
  Log Reduction A. niger: 0 log
[11]; W/O emulsion, 2 days
  Log Reduction A. niger: 0 log
[11]; W/O emulsion, 7 days
  Log Reduction A. niger: 1 log
[11]; W/O emulsion, 14 days
  Log Reduction A. niger: 2 log
[11]; W/O emulsion, 28 days
  Log Reduction A. niger: 2 log
[12]; O/W emulsion, 2 days
  Log Reduction S. aureus: 4 log
[12]; O/W emulsion, 7 days
  Log Reduction S. aureus: 6 log
[12]; O/W emulsion, 14 days
  Log Reduction S. aureus: 6 log
[12]; O/W emulsion, 28 days
  Log Reduction S. aureus: 6 log
[12]; W/O emulsion, 2 days
  Log Reduction S. aureus: 6 log
[12]; W/O emulsion, 7 days
  Log Reduction S. aureus: 6 log
[12]; W/O emulsion, 14 days
  Log Reduction S. aureus: 6 log
[12]; W/O emulsion, 28 days
  Log Reduction S. aureus: 6 log
[13]
  log reduction A. niger 30 min: 2.1 log
  log reduction A. niger 1 h: >4 log
[14]
  log reduction A. pullulans 30 min: >4 log
  log reduction A. pullulans 1 h: >4 log
[15]
  log reduction P. funiculosum 30 min: <1 log
  log reduction P. funiculosum 1 h: 1.9 log

## benzalkonium chloride
[16]
  stability of w/o or o/w emulsions formulated with the agent: No stable w/o or o/w emulsions could be formulated
